The text below walks through data of patent US20260347373A1, “HETEROCYCLIC COMPOUNDS, COMPOSITIONS THEREOF, AND METHODS OF TREATMENT THEREWITH” (BeOne Medicines I GmbH, priority 2023, published 2026).

pIC50: −log10 of the molar value.

The target in one assay is WT KRAS (Homo sapiens, UniProt P01116). Description: KRAS WT Probe Displacement Assay (TR-FRET, GDP-loaded). Format: binding. As to conditions: KRAS WT, read-out: KRAS^WT Probe Displacement Assay IC50. An excerpt:
(§1) The synthetic routes of probe 1 and 2, which have been disclosed in PCT/CN2022/070676, are hereby incorporated herein.
For orientation: Time-resolved FRET reads energy transfer from a long-lived donor to a nearby acceptor.

Another assay has as its target KRAS G12D (Homo sapiens, UniProt P01116, G12D). Description: KRAS G12D Probe Displacement Assay (TR-FRET, GDP-loaded). Type of assay: binding. The following applies: KRAS G12D, read-out: KRAS^G12D Probe Displacement Assay IC50.
Description: as §1

Sequence of KRAS G12D (P01116 1-188 isoform P01116-2 G12D): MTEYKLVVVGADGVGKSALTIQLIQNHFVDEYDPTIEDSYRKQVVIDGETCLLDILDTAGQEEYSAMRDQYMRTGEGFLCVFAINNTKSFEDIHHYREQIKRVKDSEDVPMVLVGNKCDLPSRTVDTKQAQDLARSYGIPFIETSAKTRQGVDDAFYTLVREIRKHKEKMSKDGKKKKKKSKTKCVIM
Sequence of WT KRAS (P01116 1-188 isoform P01116-2): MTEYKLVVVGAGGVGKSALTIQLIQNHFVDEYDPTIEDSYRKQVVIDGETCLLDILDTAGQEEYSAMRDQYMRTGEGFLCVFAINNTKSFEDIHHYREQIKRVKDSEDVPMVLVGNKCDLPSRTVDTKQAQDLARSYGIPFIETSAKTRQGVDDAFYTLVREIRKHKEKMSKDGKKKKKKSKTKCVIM

The term pIC50 denotes the IC50 on a negative log10 scale, so that one unit is a factor of ten. Regarding `Cc1cc(N)cc(-c2nc3c4c(nc(OCC5(CN6C[C@@H]7C[C@@H]7[C@H]6C)CC5)nc4c2F)N2C[C@H]4CC[C@H](N4)[C@H]2CCO3)c1C(F)(F)F` [Example 171, 3-((6aR,7S,10R)-1-fluoro-13-((1-(((1S,2R,5R)-2-methyl-3-azabicyclo[3.1.0]hexan-3-yl)methyl)cyclopropyl)methoxy)-5,6,6a,7,8,9,10,11-octahydro-4-oxa-3,11a,12,14,15-pentaaza-7,10-methanocyclohepta[4,5]cycloocta[1,2,3-de]naphthalen-2-yl)-5-methyl-4-(trifluoromethyl)aniline], the pIC50 was 6.00 to 8.52 at WT KRAS and greater than 9.52 on KRAS G12D.

Take `Cc1cc(N)cc(-c2nc3c4c(nc(OCC5(CN6CCCC(C(F)(F)F)C6)CC5)nc4c2F)N2C[C@H]4CC[C@H](N4)[C@H]2CCO3)c1C(F)(F)F` (stereo partly drawn) [Example 118, 3-((6aR,7S,10R)-1-fluoro-13-((1-((3-(trifluoromethyl)piperidin-1-yl)methyl)cyclopropyl)methoxy)-5,6,6a,7,8,9,10,11-octahydro-4-oxa-3,11a,12,14,15-pentaaza-7,10-methanocyclohepta [4,5]cycloocta [1,2,3-de]naphthalen-2-yl)-5-methyl-4-(trifluoromethyl)aniline]: the figures for the pIC50 on WT KRAS and on KRAS G12D were 6.00 to 8.52 and greater than 9.52, respectively.

For `Cc1cc(N)cc(-c2nc3c4c(nc(OC[C@@]5(C)CCCN(C6COC6)C5)nc4c2F)N2C[C@H]4CC[C@H](N4)[C@H]2CCO3)c1C(F)(F)F` [Example 197, 3-((6aR,7S,10R)-1-fluoro-13-(((S)-3-methyl-1-(oxetan-3-yl)piperidin-3-yl)methoxy)-5,6,6a,7,8,9,10,11-octahydro-4-oxa-3,11a,12,14,15-pentaaza-7,10-methanocyclohepta[4,5]cycloocta[1,2,3-de]naphthalen-2-yl)-5-methyl-4-(trifluoromethyl)aniline], the figures for the pIC50 at WT KRAS and on KRAS G12D were 6.00 to 8.52 and greater than 9.52, respectively.

Consider `COC[C@H]1[C@H]2C[C@H]2CN1CC1(COc2nc3c4c(nc(-c5cc(N)cc(C)c5C(F)(F)F)c(F)c4n2)OCC[C@@H]2[C@@H]4CC[C@H](CN32)N4)CC1` [Example 183, 3-((6aR,7S,10R)-1-fluoro-13-((1-(((1S,2R,5R)-2-(methoxymethyl)-3-azabicyclo[3.1.0]hexan-3-yl)methyl)cyclopropyl)methoxy)-5,6,6a,7,8,9,10,11-octahydro-4-oxa-3,11a,12,14,15-pentaaza-7,10-methanocyclohepta[4,5]cycloocta[1,2,3-de]naphthalen-2-yl)-5-methyl-4-(trifluoromethyl)aniline], for which the pIC50 at WT KRAS was 6.00 to 8.52; at KRAS G12D, greater than 9.52.

With `Cc1cc(N)cc(-c2nc3c4c(nc(OCC5(CN6C[C@@H]7[C@@H](F)[C@@H]7C6)CC5)nc4c2F)N2C[C@H]4CC[C@H](N4)[C@H]2CCO3)c1C(F)(F)F` [Example 169, 3-((6aR,7S,10R)-1-fluoro-13-((1-(((1R,5S,6S)-6-fluoro-3-azabicyclo[3.1.0]hexan-3-yl)methyl)cyclopropyl)methoxy)-5,6,6a,7,8,9,10,11-octahydro-4-oxa-3,11a,12,14,15-pentaaza-7,10-methanocyclohepta[4,5]cycloocta[1,2,3-de]naphthalen-2-yl)-5-methyl-4-(trifluoromethyl)aniline], the values for the pIC50 on WT KRAS and at KRAS G12D were 6.00 to 8.52 and greater than 9.52, respectively.

Turning to `Cc1cc(N)cc(-c2nc3c4c(nc(OC[C@@]56C[C@@H](F)CN5C[C@@]5(CC5(F)F)C6)nc4c2F)N2C[C@H]4CC[C@H](N4)[C@H]2CCO3)c1C(F)(F)F` [Example 199, 3-((6aR,7S,10R)-1-fluoro-13-(((1S,6′R,7a′R)-2,2,6′-trifluorodihydro-1′H,3′H-spiro[cyclopropane-1,2′-pyrrolizin]-7a′(5′H)-yl)methoxy)-5,6,6a,7,8,9,10,11-octahydro-4-oxa-3,11a,12,14,15-pentaaza[7,10]methanocyclohepta[4,5]cycloocta[1,2,3-de]naphthalen-2-yl)-5-methyl-4-(trifluoromethyl)aniline], the values for the pIC50 on WT KRAS and at KRAS G12D were 8.52 to 9.52 and greater than 9.52, respectively.

For `Cc1cc(N)cc(-c2nc3c4c(nc(OCC5(CN6CCC6)CC5(F)F)nc4c2F)N2C[C@H]4CC[C@H](N4)[C@H]2CCO3)c1C(F)(F)F` (single isomer, unassigned) [Example 57], the figures for the negative logarithm of the IC50 (pIC50) on WT KRAS and on KRAS G12D were 6.00 to 8.52 and 8.52 to 9.52, respectively.
